From patent US6576641B2, “Fused heterocyclic compounds and their use in the treatment of neurodegenerative diseases” (Neurosearch A/S, priority 1999, dated 2003)

Experiments:
[1] = tested on: differentiated PC12 cells; test: Survival of differentiated PC12 cells after NGF withdrawal, cell viability by reduction of MTS; assay type: cell-based
Procedure: (§1) Survival of Differentiated PC12 Cells after NGF Withdrawal
(§2) PC12 cells are considered models for […] neurons for the investigation of neuronal differentiation and apoptosis.
(§3) PC12 cells were seeded in collagen coated 96 well plates at a cell density of 8000/cm^2 in DMEM with 7.5% FCS, 7.5% HS and 2 nM NGF and cultured for 6 days.
(§4) The medium was then changed to DMEM without serum supplemented with the compound of the test compound in the concentrations indicated in FIG. 1. As a positive control, parallel wells receiving serum-free DMEM without addition of vehicle or 3 nM NGF were included.
After 4 days of incubation, cell viability was evaluated by reduction of MTS using the CellTiter 96 AQueous Non-radioactive Cell Proliferation Assay (available from Promega).
Data are expressed as % of the response seen with 3 nM NGF, and corrected for residual MTS reduction activity in the parallel serum-free cultures, cf. FIG. 1A.

[2] = tested on: differentiated PC12 cells; test: Survival of differentiated PC12 cells after NGF withdrawal, cell viability by CyQUANT; assay type: cell-based; settings: differentiated PC12 cells in serum-free medium, after 4 days; FIG. 1B
Procedure: as §1, §2, §3, §4
In another assay cell viability after 4 days was evaluated by using the CyQUANT Cell Proliferation Kit from Molecular Probes. CyQUANT might give a better correlation with the actual cell number of the culture than MTS, which rather reflects the total metabolic activity of the culture, cf. FIG. 1B.

Q: `CCCCN1CCc2oc(-c3ccc([N+](=O)[O-])cc3)cc2C1.O=C(O)/C=C/C(=O)O` [Compound 1, 6-(4-Nitrophenyl)-furano[3,2-c]-N-butyl-1,2,3,4-tetrahydropyridine Fumaric Acid Salt] was tested. Which “rescue of differentiated PC12 cells in serum-free medium” value ([1]; at nanomolar concentrations, stated for both MTS and CyQUANT experiments) did it give?
A: The value was “potent dose-dependent rescue”.

Q: And the “maximal protection (cell viability, MTS)” value ([1]; differentiated PC12 cells in serum-free medium, 4 days of incubation, % of the response seen with 3 nM NGF, corrected for serum-free cultures, FIG. 1A)?
A: Its value is “approximately 30%”.

Q: And the “concentration giving maximal protection” value ([1]; differentiated PC12 cells in serum-free medium, tested 1 nM to 10 μM, stated for both MTS and CyQUANT experiments)?
A: The value was 100 nM.

Q: What about the “maximal rescue (cell survival, CyQUANT)” value [2] of the same compound?
A: Its value is “approximately 50%”.
